Molecules are shown by their SMILES. Read-outs that look alike come from different tables or passages of the source. A value given as a limit tells only on which side of the number the result lay.

What all share (format): biochemical
For one assay, the target named is human ADAMTS-5 (Homo sapiens (Human), UniProt Q9UNA0). Nature of the assay: hADAMTS-5 TBIS-1 cleavage assay, Protocol 3. The conditions noted are these: Protocol 3, TBIS-1 substrate, 90 min at 37° C.; read-out: hADAMTS-5 potency IC50. As for the experimental part:
The reaction is initiated by adding to the assay plate TBIS-1 (10 μL, 4.5 μM, Anaspec) in the same buffer.
Finally, the fluorescence is read on the Envision (Perkin Elmer) after an incubation of 90 min at 37° C. (Excitation 485 nm, emission 530).

The target in another assay is human ADAMTS6 (Homo sapiens (Human), UniProt Q9UKP5). Nature of the assay: hADAMTS-6 520 MMP FRET substrate XII cleavage assay. The conditions noted are these: 37° C. for 2 h, read-out: hADAMTS-6 potency IC50. An excerpt: The IC50 value for test compounds can be determined in a fluorescent based protease assay.
The basis for the assay is the cleavage of the substrate 520 MMP FRET substrate XII by human ADAMTS6.
The substrate contains sequence Arg-Pro-Lys-Pro-Tyr-Ala-Nva-Trp-Met-Lys (SEQ ID NO: 7) with attached a fluorescent probe and a quencher. Without ADAMTS6, the emission of the probe is quenched. If the substrate is cleaved by ADAMTS6, the emission of the probe is not quenched anymore. Inhibition of ADAMTS6 activity, will result in a decrease of the signal.
To perform the assay, 4 μL of a dilution series of compound in water, starting from 20 μM highest concentration, 1/5 dilution, is added to the wells. 2 ng ADAMTS6 enzyme is diluted in 25 mM Tris pH8.0, 0.05% CHAPS, 2.5 mM CaCl2 in a total volume of 26 μL (final concentration 0.73 nM). The reaction is started by addition of 10 μL of 1 μM 520 MMP FRET Substrate XII (final concentration, diluted in same buffer as described above) and the mixture is incubated at 37° C. for 2 h. […] After this incubation, cleavage of the substrate is measured using the Envision (Perkin Elmer, exc485/em530).

For another assay, the target named is human TACE (Homo sapiens (Human), UniProt P78536). Nature of the assay: hTACE 5FAM-[…]-5TAMRA cleavage assay. As to conditions: 75 min at room temperature, read-out: hTACE potency IC50. As for the experimental part:
Finally, the fluorescence is read on the Envision (Perkin Elmer) after an incubation of 75 min at room temperature (Excitation 485 nm, Emission 530).

Chain of human ADAMTS6 (Q9UKP5 other isoform, or with tags, fused parts or gaps): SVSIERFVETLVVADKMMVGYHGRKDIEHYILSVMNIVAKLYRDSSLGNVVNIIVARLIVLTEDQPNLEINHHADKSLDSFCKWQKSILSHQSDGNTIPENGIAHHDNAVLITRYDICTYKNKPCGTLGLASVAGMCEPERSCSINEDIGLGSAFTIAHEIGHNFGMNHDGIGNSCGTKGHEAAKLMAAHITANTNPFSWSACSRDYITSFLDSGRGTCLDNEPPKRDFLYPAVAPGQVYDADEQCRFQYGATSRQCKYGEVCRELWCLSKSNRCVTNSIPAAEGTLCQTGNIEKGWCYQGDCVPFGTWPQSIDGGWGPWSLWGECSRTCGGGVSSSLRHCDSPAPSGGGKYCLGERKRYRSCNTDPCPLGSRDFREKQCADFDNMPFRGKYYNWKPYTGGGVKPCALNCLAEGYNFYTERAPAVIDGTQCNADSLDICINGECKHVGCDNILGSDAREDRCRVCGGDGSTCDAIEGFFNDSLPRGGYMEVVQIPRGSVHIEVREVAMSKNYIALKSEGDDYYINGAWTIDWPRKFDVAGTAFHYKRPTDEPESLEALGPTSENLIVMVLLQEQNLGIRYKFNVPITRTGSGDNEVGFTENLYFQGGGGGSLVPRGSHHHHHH
Chain of human TACE (P78536 215-671): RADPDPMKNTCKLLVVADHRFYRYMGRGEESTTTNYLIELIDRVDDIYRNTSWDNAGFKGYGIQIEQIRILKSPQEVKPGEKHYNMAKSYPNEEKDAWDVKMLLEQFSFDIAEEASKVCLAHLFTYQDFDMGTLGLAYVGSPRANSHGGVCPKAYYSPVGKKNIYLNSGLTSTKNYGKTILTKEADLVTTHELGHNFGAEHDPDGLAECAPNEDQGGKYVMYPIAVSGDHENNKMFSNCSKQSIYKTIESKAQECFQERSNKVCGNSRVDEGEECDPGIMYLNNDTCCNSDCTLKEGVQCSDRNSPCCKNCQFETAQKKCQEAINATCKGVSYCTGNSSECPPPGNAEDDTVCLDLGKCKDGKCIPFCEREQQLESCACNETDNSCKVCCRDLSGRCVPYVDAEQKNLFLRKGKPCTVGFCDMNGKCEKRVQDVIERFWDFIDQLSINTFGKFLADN
Chain of human ADAMTS-5 (Q9UNA0 262-930): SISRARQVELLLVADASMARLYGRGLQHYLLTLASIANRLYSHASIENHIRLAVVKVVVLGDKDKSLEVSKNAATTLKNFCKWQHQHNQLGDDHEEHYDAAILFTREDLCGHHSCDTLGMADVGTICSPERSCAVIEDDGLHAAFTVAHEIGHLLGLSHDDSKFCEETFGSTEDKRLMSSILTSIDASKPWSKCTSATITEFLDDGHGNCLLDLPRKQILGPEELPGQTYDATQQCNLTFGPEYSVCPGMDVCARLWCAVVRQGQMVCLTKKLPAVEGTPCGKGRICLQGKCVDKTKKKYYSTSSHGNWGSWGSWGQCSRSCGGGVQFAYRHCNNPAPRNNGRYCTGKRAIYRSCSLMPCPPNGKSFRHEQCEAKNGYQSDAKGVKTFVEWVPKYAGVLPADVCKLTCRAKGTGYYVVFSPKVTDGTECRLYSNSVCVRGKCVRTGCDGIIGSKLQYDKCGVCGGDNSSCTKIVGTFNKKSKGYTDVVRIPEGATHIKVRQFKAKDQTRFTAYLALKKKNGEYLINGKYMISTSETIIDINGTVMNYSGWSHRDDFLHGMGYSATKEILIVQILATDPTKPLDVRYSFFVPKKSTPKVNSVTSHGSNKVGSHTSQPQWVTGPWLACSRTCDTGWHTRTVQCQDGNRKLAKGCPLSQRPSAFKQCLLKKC

`C[C@H]1CN(C(=O)CC[C@@]2(C)NC(=O)NC2=O)CC[C@H]1c1ccc(F)c(F)c1` [Cpd 99, (5R)-5-[3-[(3R,4R)-4-(3,4-difluorophenyl)-3-methyl-1-piperidyl]-3-oxo-propyl]-5-methyl-imidazolidine-2,4-dione]: the IC50 fell in the range of 50 to 100 nM on human ADAMTS-5 and 25 to 50 nM at human ADAMTS6.

As for `Cc1cc(Cl)ccc1C1CCN(C(=O)CCC2(C)NC(=O)NC2=O)CC1` (centres unmarked) [Cpd 60, 5-(3-(4-(4-chloro-2-methylphenyl)piperidin-1-yl)-3-oxopropyl)-5-methyl-imidazolidine-2,4-dione], the IC50 on human ADAMTS-5 was > 100 nM; on human ADAMTS6 it was 50 to 100 nM.

Consider `COc1ccc(OC)c(C2CCN(C(=O)CC[C@H]3NC(=O)NC3=O)CC2)c1` [Cpd 35, (R)-5-(3-(4-(2,5-dimethoxy-phenyl)piperidin-1-yl)-3-oxopropyl) imidazolidine-2,4-dione], for which the IC50 on human ADAMTS-5 and at human ADAMTS6 was > 100 nM throughout.

Take `COc1cc(C2CCN(C(=O)CC[C@@]3(C)NC(=O)NC3=O)CC2)cc(Cl)c1Cl` [Cpd 68, (R)-5-(3-(4-(3,4-dichloro-5-methoxyphenyl)piperidin-1-yl)-3-oxopropyl)-5-methylimidazolidine-2,4-dione]: the concentration for half-maximal inhibition (IC50) at human TACE (5FAM-[…]-5TAMRA) fell in the range of 50 to 100 nM; on human ADAMTS6, 0.001 to 25 nM.

Turning to `COc1cc(Cl)c(Cl)cc1C1CCN(C(=O)CCC2(c3cccc(C)n3)NC(=O)NC2=O)CC1` (centres unmarked) [Cpd 92, 5-[3-[4-(4,5-dichloro-2-methoxy-phenyl)-1-piperidyl]-3-oxo-propyl]-5-(6-methyl-2-pyridyl) imidazolidine-2,4-dione], the 50% inhibitory concentration (IC50) at human ADAMTS6 was 0.001 to 25 nM.

As for `COc1ccc(Cl)cc1C1CCN(C(=O)CC[C@H]2NC(=O)NC2=O)CC1` [Cpd 40, (R)-5-(3-(4-(5-chloro-2-methoxy-phenyl)piperidin-1-yl)-3-oxopropyl) imidazolidine-2,4-dione], the half-inhibitory concentration (IC50) on human ADAMTS-5 and at human ADAMTS6 was > 100 nM in each case.

As for `COc1cc(C2CCN(C(=O)CC[C@H]3NC(=O)NC3=O)CC2)cc(OC)c1F` [Cpd 82, (5R)-5-[3-[4-(4-fluoro-3,5-dimethoxy-phenyl)-1-piperidyl]-3-oxo-propyl] imidazolidine-2,4-dione], the IC50 at human TACE (5FAM-[…]-5TAMRA) lay within 50 to 100 nM; on human ADAMTS6, 0.001 to 25 nM.

Take `COc1cc(C2CCN(C(=O)CC[C@H]3NC(=O)NC3=O)CC2)cc(Cl)c1Cl` [Cpd 69, (R)-5-(3-(4-(3,4-dichloro-5-methoxyphenyl)piperidin-1-yl)-3-oxopropyl) imidazolidine-2,4-dione]: the IC50 at human TACE (5FAM-[…]-5TAMRA) lay within 50 to 100 nM; on human ADAMTS6, 0.001 to 25 nM.

As for `COc1cc(C2CCN(C(=O)CCC3(C)NC(=O)NC3=O)CC2)c(C)cc1Cl` (centres unmarked) [Cpd 37, 5-(3-(4-(4-chloro-5-methoxy-2-methylphenyl)piperidin-1-yl)-3-oxopropyl)-5-methyl-imidazolidine-2,4-dione], the half-maximal inhibitory concentration (IC50) on human ADAMTS6 lay in the range of 0.001 to 25 nM.

With `C[C@]1(CCC(=O)N2CCC(c3ccc(Cl)c(C(F)(F)F)c3)CC2)NC(=O)NC1=O` [Cpd 94, (5R)-5-[3-[4-[4-chloro-3-(trifluoromethyl)phenyl]-1-piperidyl]-3-oxo-propyl]-5-methyl-imidazolidine-2,4-dione], on human ADAMTS6, the IC50 is 25 to 50 nM.

On to `Cc1cc(Cl)c(F)cc1C1CCN(C(=O)CC[C@H]2NC(=O)NC2=O)CC1` [Cpd 63, (R)-5-(3-(4-(4-chloro-5-fluoro-2-methylphenyl)piperidin-1-yl)-3-oxopropyl) imidazolidine-2,4-dione], for which the IC50 on human ADAMTS-5 was > 100 nM; at human ADAMTS6, 50 to 100 nM.

For the molecule `Cc1cc(Cl)ccc1C1CCN(C(=O)CC[C@H]2NC(=O)NC2=O)CC1` [Cpd 59, (R)-5-(3-(4-(4-chloro-2-methylphenyl)piperidin-1-yl)-3-oxopropyl) imidazolidine-2,4-dione], the IC50 at human ADAMTS6 is > 100 nM.

As for `O=C1NC(=O)[C@@H](CCC(=O)N2CCC(c3ccc(F)c(F)c3)CC2)N1` [Cpd 53, (R)-5-(3-(4-(3,4-difluorophenyl)piperidin-1-yl)-3-oxopropyl) imidazolidine-2,4-dione], the IC50 on human ADAMTS-5 and on human ADAMTS6 was > 100 nM in each case.

Turning to `COc1cc(C2CCN(C(=O)CC[C@H]3NC(=O)NC3=O)CC2)ccc1F` [Cpd 52, (R)-5-(3-(4-(4-fluoro-3-methoxyphenyl)piperidin-1-yl)-3-oxopropyl) imidazolidine-2,4-dione], the IC50 on human TACE (5FAM-LAQAVRSSSRK-5TAMRA), at human ADAMTS-5 and at human ADAMTS6 was > 100 nM each time.

In the case of `C[C@H]1CN(C(=O)CCC2(C3CC3)NC(=O)NC2=O)CC[C@H]1c1ccc(F)c(F)c1` (stereo partly drawn) [Cpd 76, 5-cyclopropyl-5-(3-((3R,4R)-4-(3,4-difluorophenyl)-3-methylpiperidin-1-yl)-3-oxopropyl) imidazolidine-2,4-dione], the 50% inhibitory concentration (IC50) was > 100 nM at human TACE (5FAM-LAQAVRSSSRK-5TAMRA), 50 to 100 nM on human ADAMTS-5 and 50 to 100 nM on human ADAMTS6.

On to `COc1ccc(C2CCN(C(=O)CCC3(C)NC(=O)NC3=O)CC2)cc1` (centres unmarked) [Cpd 31, 5-(3-(4-(4-methoxyphenyl)piperidin-1-yl)-3-oxopropyl)-5-methyl-imidazolidine-2,4-dione], for which the IC50 on human ADAMTS-5 and at human ADAMTS6 was > 100 nM throughout.

On to `C[C@H]1CN(C(=O)CC[C@@]2(C3CC3)NC(=O)NC2=O)CC[C@H]1c1ccc(F)c(F)c1` [Cpd 78, (S)-5-cyclopropyl-5-(3-((3R,4R)-4-(3,4-difluorophenyl)-3-methylpiperidin-1-yl)-3-oxopropyl) imidazolidine-2,4-dione], for which the figures for the half-maximal inhibitory concentration (IC50) on human TACE (5FAM-LAQAVRSSSRK-5TAMRA), on human ADAMTS-5 and at human ADAMTS6 were > 100 nM, 25 to 50 nM and 25 to 50 nM, respectively.

Consider `C[C@H]1CN(C(=O)CC[C@@]2(C3CC3)NC(=O)NC2=O)CC[C@@H]1c1ccc(F)c(F)c1` [Cpd 77, (S)-5-cyclopropyl-5-(3-((3R,4S)-4-(3,4-difluorophenyl)-3-methylpiperidin-1-yl)-3-oxopropyl) imidazolidine-2,4-dione], for which the 50% inhibitory concentration (IC50) at human TACE (5FAM-LAQAVRSSSRK-5TAMRA), at human ADAMTS-5 and at human ADAMTS6 was > 100 nM throughout.

For the molecule `COc1c(Cl)cccc1C1CCN(C(=O)CC[C@@]2(C)NC(=O)NC2=O)CC1` [Cpd 86, (5R)-5-[3-[4-(3-chloro-2-methoxy-phenyl)-1-piperidyl]-3-oxo-propyl]-5-methyl-imidazolidine-2,4-dione], the IC50 on human ADAMTS-5 and on human ADAMTS6 was > 100 nM in each case.

For the molecule `COc1cc(Cl)c(Cl)cc1C1CCN(C(=O)CCC2(C)NC(=O)NC2=O)CC1` (centres unmarked) [Cpd 62, 5-(3-(4-(4,5-dichloro-2-methoxyphenyl)piperidin-1-yl)-3-oxopropyl)-5-methyl-imidazolidine-2,4-dione], the IC50 at human ADAMTS6 was 0.001 to 25 nM.

On to `COc1ccc(OC)c(C2CCN(C(=O)CCC3(C)NC(=O)NC3=O)CC2)c1` (centres unmarked) [Cpd 39, 5-(3-(4-(2,5-dimethoxy-phenyl)piperidin-1-yl)-3-oxopropyl)-5-methyl-imidazolidine-2,4-dione], for which the half-inhibitory concentration (IC50) at human ADAMTS-5 and on human ADAMTS6 was > 100 nM in each case.

As to `COc1cc(C2CCN(C(=O)CC[C@@]3(C)NC(=O)NC3=O)CC2)c(C)cc1F` [Cpd 83, (5R)-5-[3-[4-(4-fluoro-5-methoxy-2-methyl-phenyl)-1-piperidyl]-3-oxo-propyl]-5-methyl-imidazolidine-2,4-dione], the IC50 on human ADAMTS6 lay in the range of 25 to 50 nM.

Turning to `CC1(CCC(=O)N2CCC(c3ccc(-c4ccccc4F)s3)CC2)NC(=O)NC1=O` (centres unmarked) [Cpd 112, 5-[3-[4-[5-(2-fluorophenyl)-2-thienyl]-1-piperidyl]-3-oxo-propyl]-5-methyl-imidazolidine-2,4-dione], the values for the half-inhibitory concentration (IC50) at human ADAMTS-5 and on human ADAMTS6 were > 100 nM and 50 to 100 nM, respectively.

As to `Cc1cc(C2CCN(C(=O)CC[C@@]3(C)NC(=O)NC3=O)CC2)ccc1Cl` [Cpd 95, (5R)-5-[3-[4-(4-chloro-3-methyl-phenyl)-1-piperidyl]-3-oxo-propyl]-5-methyl-imidazolidine-2,4-dione], at human ADAMTS6, the half-maximal inhibitory concentration (IC50) was 0.001 to 25 nM.

In the case of `COc1cc(C2CCN(C(=O)CC[C@H]3NC(=O)NC3=O)CC2)cc(N(C)C)c1Cl` [Cpd 91], on human ADAMTS6, the half-inhibitory concentration (IC50) was 25 to 50 nM.

Consider `COc1ccc(C2CCN(C(=O)CC[C@H]3NC(=O)NC3=O)CC2)cc1` [Cpd 30, (R)-5-(3-(4-(4-methoxyphenyl)piperidin-1-yl)-3-oxopropyl) imidazolidine-2,4-dione], for which the IC50 on human ADAMTS-5 and at human ADAMTS6 was > 100 nM each time.

Turning to `CC1(CCC(=O)N2CCC(c3ccc(F)c(F)c3)CC2)NC(=O)NC1=O` (centres unmarked) [Cpd 56, 5-(3-(4-(3,4-difluorophenyl)piperidin-1-yl)-3-oxopropyl)-5-methyl-imidazolidine-2,4-dione], the concentration for half-maximal inhibition (IC50) on human ADAMTS-5 and at human ADAMTS6 was > 100 nM throughout.

For the origin of these results see patent publication US10550100B2, “5-[3-[piperzin-1-yl]-3-oxo-propyl]-imidazolidine-2,4-dione derivatives as ADAMTS 4 and 5 inhibitors for treating E.G. osteoarthritis” (GALAPAGOS NV, priority 2016, dated 2020).
